Assay results taken from publication PMC6271009, “Design and Synthesis of Thiazolo[5,4-f]quinazolines as DYRK1A Inhibitors, Part II” (Molecules, 2014).

Tests used:
[1] = system: B- and T-ALL cell lines and primary human pediatric ALL samples; parameters: method as in doi:10.1182/blood-2013-06-507368; conditions: cited from earlier work
DYRK1A = target: T1, DYRK1A (Homo sapiens, UniProt Q13627); test: DYRK1A kinase assay, Reaction Biology Corporation HotSpot technology (33P ATP); format: biochemical; conditions: for IC50: purified recombinant kinase, 10 µM ATP, 120 min, room temperature
T1 construct: Purified recombinant kinase was incubated with serial 3-fold dilutions of test compounds; purchased Reaction Biology Corporation

DYRK1B = target: T2, DYRK1B (Homo sapiens, UniProt Q9Y463); test: DYRK1B kinase assay, Reaction Biology Corporation HotSpot technology (33P ATP); format: biochemical; conditions: purified recombinant kinase, 10 µM ATP, 120 min, room temperature
T2 construct: Purified recombinant kinase was incubated with serial 3-fold dilutions of test compounds; purchased Reaction Biology Corporation
T2 sequence (Q9Y463 whole entry): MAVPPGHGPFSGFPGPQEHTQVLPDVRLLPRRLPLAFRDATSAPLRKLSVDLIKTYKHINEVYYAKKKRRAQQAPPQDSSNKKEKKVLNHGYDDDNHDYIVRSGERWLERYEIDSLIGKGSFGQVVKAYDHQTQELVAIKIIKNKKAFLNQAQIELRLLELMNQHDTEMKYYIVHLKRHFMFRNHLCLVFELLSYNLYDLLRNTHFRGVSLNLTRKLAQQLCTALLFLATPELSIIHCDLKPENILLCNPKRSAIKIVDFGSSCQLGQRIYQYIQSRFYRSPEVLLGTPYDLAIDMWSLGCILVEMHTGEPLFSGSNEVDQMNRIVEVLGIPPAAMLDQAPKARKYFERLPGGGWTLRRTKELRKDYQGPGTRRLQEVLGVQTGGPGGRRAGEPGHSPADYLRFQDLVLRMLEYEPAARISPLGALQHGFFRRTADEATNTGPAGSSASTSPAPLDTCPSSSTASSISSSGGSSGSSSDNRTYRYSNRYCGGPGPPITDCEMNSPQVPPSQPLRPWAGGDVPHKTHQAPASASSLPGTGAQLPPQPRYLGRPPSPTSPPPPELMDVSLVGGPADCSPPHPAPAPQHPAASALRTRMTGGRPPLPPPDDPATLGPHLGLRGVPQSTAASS

[2] = system: patient-derived ovarian cancer ascites spheroids; conditions: cited from earlier work
Panc1 xenograft = conditions: cited from earlier work

| SMILES | IC50 (DYRK1A) | IC50 (DYRK1B) | further results |
| --- | --- | --- | --- |
| COC(=N)c1nc2ccc3ncnc(Nc4ccc(OC)cc4F)c3c2s1 [Compound 8i, Methyl 9-(2-fluoro-4-methoxyphenylamino)thiazolo[5,4-f]quinazoline-2-carbimidate] |  |  | Apoptosis induction in B- and T-ALL cell lines and primary human pediatric ALL samples [1]: dose-dependently induce apoptosis; Apoptosis of primary ALL cells resistant to cytarabine ([1]; cytarabine-resistant primary ALL cells): induced apoptosis |
| COC(=N)c1nc2ccc3ncnc(Nc4ccc(O)c([N+](=O)[O-])c4)c3c2s1 [Compound 7k, Methyl 9-(4-hydroxy-3-nitrophenylamino)thiazolo[5,4-f]quinazoline-2-carbimidate] | 4.91 nM | 5.68 nM |  |
| COC(=N)c1nc2ccc3ncnc(Nc4ccc(F)cc4)c3c2s1 [Compound 8e, Methyl 9-(4-fluorophenylamino)thiazolo[5,4-f]quinazoline-2-carbimidate] | 6.06 nM | 9.64 nM |  |
| COC(=N)c1nc2ccc3ncnc(Nc4ccc(F)cc4F)c3c2s1 [Compound 8k, Methyl 9-(2,4-difluorophenylamino)thiazolo[5,4-f]quinazoline-2-carbimidate] | 0.94 nM | 1.07 nM |  |
| COC(=N)c1nc2ccc3ncnc(Nc4ccc(Cl)c(Cl)c4)c3c2s1 [Compound 8d, Methyl 9-(3,4-dichlorophenylamino)thiazolo[5,4-f]quinazoline-2-carbimidate] | 66.8 nM |  |  |
| COC(=N)c1nc2ccc3ncnc(Nc4ccc(Cl)cc4Cl)c3c2s1 [Compound 8c, Methyl 9-(2,4-dichlorophenylamino)thiazolo[5,4-f]quinazoline-2-carbimidate] | 0.22 nM | 0.28 nM | Activity in patient-derived ovarian cancer ascites spheroids [2]: promising activities; Toxicity in mice (Panc1 xenograft model) (Panc1 xenograft): without detectable toxicity; In vivo activity in Panc1 xenograft model (Panc1 xenograft; mice): in vivo activities |
| COC(=N)c1nc2ccc3ncnc(Nc4ccc5c(c4)OCCO5)c3c2s1 [Compound 7c, Methyl 9-(2,3-dihydrobenzo[b][1,4]dioxin-6-ylamino)thiazolo[5,4-f]quinazoline-2-carbimidate] | 8 nM |  |  |
| COC(=N)c1nc2ccc3ncnc(Nc4ccc(OC)cc4)c3c2s1 [Compound 7a, Methyl 9-(4-methoxyphenylamino)thiazolo[5,4-f]quinazoline-2-carbimidate] | 13.1 nM | 19.2 nM |  |
| COC(=N)c1nc2ccc3ncnc(Nc4ccc(Br)cc4F)c3c2s1 [Compound 8f, Methyl 9-(4-bromo-2-fluorophenylamino)thiazolo[5,4-f]quinazoline-2-carbimidate] | 3.6 nM | 6.55 nM |  |
| COC(=N)c1nc2ccc3ncnc(Nc4cc(OC)c(OC)c(OC)c4)c3c2s1 [Compound 7l, Methyl 9-(3,4,5-trimethoxyphenylamino)thiazolo[5,4-f]quinazoline-2-carbimidate] | 436 nM | 486 nM |  |
| COC(=N)c1nc2ccc3ncnc(Nc4ccc(OC)c([N+](=O)[O-])c4)c3c2s1 [Compound 7h, Methyl 9-(4-methoxy-3-nitrophenylamino)thiazolo[5,4-f]quinazoline-2-carbimidate] | 124 nM |  |  |
| COC(=N)c1nc2ccc3ncnc(Nc4ccc(C(F)(F)F)cc4)c3c2s1 [Compound 8l, Methyl 9-(4-(trifluoromethyl)phenylamino)thiazolo[5,4-f]quinazoline-2-carbimidate] | 54.8 nM | 186 nM |  |
| COC(=N)c1nc2ccc3ncnc(Nc4ccc(OC)cc4OC)c3c2s1 [Compound 7f, Methyl 9-(2,4-dimethoxyphenylamino)thiazolo[5,4-f]quinazoline-2-carbimidate] | 9.53 nM | 11.1 nM |  |
| COC(=O)c1nc2ccc3ncnc(Nc4ccc5c(c4)OCO5)c3c2s1 [Compound 13, Methyl 9-(benzo[d][1,3]dioxol-5-ylamino)thiazolo[5,4-f]quinazoline-2-carboxylate] |  |  | Affinity for DYRK1A, result in words (DYRK1A; compared with parent methyl carbimidate / secondary amine analogs): mostly inactive |
| COC(=N)c1nc2ccc3ncnc(Nc4ccc(Cl)cc4)c3c2s1 [Compound 8a, Methyl 9-(4-chlorophenylamino)thiazolo[5,4-f]quinazoline-2-carbimidate] | 1.13 nM | 4.74 nM |  |
| COC(=N)c1nc2ccc3ncnc(Nc4ccc5c(c4)OCO5)c3c2s1 [Compound 7b, methyl 9-(benzo[d][1,3]dioxol-5-ylamino)thiazolo[5,4-f]quinazoline-2-carbimidate] |  | 4.2 nM |  |
| COC(=N)c1nc2ccc3ncnc(Nc4ccc(OC)c(OC)c4)c3c2s1 [Compound 7e, Methyl 9-(3,4-dimethoxyphenylamino)thiazolo[5,4-f]quinazoline-2-carbimidate] |  | 161 nM |  |
| COC(=N)c1nc2ccc3ncnc(Nc4ccc(O)c(F)c4)c3c2s1 [Compound 8j, Methyl 9-(3-fluoro-4-hydroxyphenylamino)thiazolo[5,4-f]quinazoline-2-carbimidate] | 8.63 nM | 11 nM |  |
| COC(=N)c1nc2ccc3ncnc(Nc4cc(OC)cc(OC)c4)c3c2s1 [Compound 7g, Methyl 9-(3,5-dimethoxyphenylamino)thiazolo[5,4-f]quinazoline-2-carbimidate] | 299 nM |  |  |
| COC(=N)c1nc2ccc3ncnc(Nc4cccc(Cl)c4)c3c2s1 [Compound 8b, Methyl 9-(3-chlorophenylamino)thiazolo[5,4-f]quinazoline-2-carbimidate] | 13.6 nM | 18.8 nM |  |

Now from value to compound, other results behind:

| IC50 (DYRK1A) | IC50 (DYRK1B) | SMILES | further results |
| --- | --- | --- | --- |
| 6.02 nM | 7.72 nM | CCOC(=N)c1nc2ccc3ncnc(Nc4ccc5c(c4)OCO5)c3c2s1 [Compound 12a, Ethyl 9-(benzo[d][1,3]dioxol-5-ylamino)thiazolo[5,4-f]quinazoline-2-carbimidate] |  |
| 39 nM | 93.8 nM | COC(=N)c1nc2ccc3ncnc(Nc4ccc(C(C)(C)C)cc4)c3c2s1 [Compound 9c, Methyl 9-(4-tert-butylphenylamino)thiazolo[5,4-f]quinazoline-2-carbimidate] |  |
| 1.81 nM | 3.48 nM | COC(=N)c1nc2ccc3ncnc(Nc4ccccc4)c3c2s1 [Compound 9a, Methyl 9-(phenylamino)thiazolo[5,4-f]quinazoline-2-carbimidate] |  |
| 125 nM | 218 nM | CC(C)OC(=N)c1nc2ccc3ncnc(Nc4ccc5c(c4)OCO5)c3c2s1 [Compound 12b, Isopropyl 9-(benzo[d][1,3]dioxol-5-ylamino)thiazolo[5,4-f]quinazoline-2-carbimidate] | melting point: 224 to 226 °C |
| 3.89 nM | 7.69 nM | COC(=N)c1nc2ccc3ncnc(Nc4ccc(C#N)cc4)c3c2s1 [Compound 9e, Methyl 9-(4-cyanophenylamino)thiazolo[5,4-f]quinazoline-2-carbimidate] |  |
| 33.9 nM | 37.3 nM | N=C(OCc1ccccc1)c1nc2ccc3ncnc(Nc4ccc5c(c4)OCO5)c3c2s1 [Compound 12c, Benzyl 9-(benzo[d][1,3]dioxol-5-ylamino)thiazolo[5,4-f]quinazoline-2-carbimidate] |  |
| 35.6 nM | 64.3 nM | COC(=N)c1nc2ccc3ncnc(Nc4ccc(N(C)C)cc4)c3c2s1 [Compound 9h, Methyl 9-(4-(dimethylamino)phenylamino)thiazolo[5,4-f]quinazoline-2-carbimidate] |  |
| 40.8 nM | 46.3 nM | C#Cc1cccc(Nc2ncnc3ccc4nc(C(=N)OC)sc4c23)c1 [Compound 9d, Methyl 9-(3-ethynylphenylamino)thiazolo[5,4-f]quinazoline-2-carbimidate] |  |
| 0.98 nM | 2.83 nM | COC(=N)c1nc2ccc3ncnc(Nc4ccc(C)cc4)c3c2s1 [Compound 9b, Methyl 9-(p-tolylamino)thiazolo[5,4-f]quinazoline-2-carbimidate] |  |
| 2.2 nM | 20.6 nM | CC(C)(C)CNc1ncnc2ccc(-c3ccc4c(c3)OCO4)cc12 [NCGC-00189310, reference compound] |  |
| 42.7 nM | 72 nM | COC(=N)c1nc2ccc3ncnc(Nc4cccc(C#N)c4)c3c2s1 [Compound 9f, Methyl 9-(3-cyanophenylamino)thiazolo[5,4-f]quinazoline-2-carbimidate] |  |
